Experimental data published in PMC7109127 (British Journal of Cancer, 2020).
“And” between values parts separate entries of the source, which are not always exact repeats. Equal entries are not always repeated. Where two headings read alike, the source gives them in different places.

Columns and labels:
[1] = phase 1b/2 study, plasma pharmacokinetics (LC-MS/MS, NCA and nonlinear mixed-effects model); type: in vivo, patients; design: AUC0-4: concentration or dose not given beside the values
Protocol: LC-MS/MS analysis of the extracted samples was performed using an Agilent Technologies (Santa Clara, California) HPLC system and the API 3000 mass spectrometer (Sciex, Framingham, MA) with electrospray ionisation. Chromatographic separation was achieved using a biphasic gradient over a Cortecs C18 column (2.1 × 50 mm^2, Waters Corporation, Milford, MA) preceded by a Cortecs C18+VanGuard Cartridge (2.1 × 5 mm^2, Waters Corporation). Analytes were detected using multiple reaction monitoring in positive ion mode.
A nonlinear mixed-effects model was developed using first-order conditional estimation with interaction (FOCE-I) with the Laplacian option selected. This estimator was chosen as it is more suitable to modelling sparse data sets. One- and two-compartment structural models were tested with first-order absorption, both with and without a separate bioavailability term. Estimates for inter-subject variability were tested on all PK parameters using exponential relationships and were included where they could be confidently estimated. Inter-occasion variability between cycle 1 day 1 and cycle 1 day 15 was also tested. The residual unexplained variability in drug concentrations was tested with additive, proportional, and combined additive and proportional error models. Model selection was performed on the basis of the negative log-likelihood objective function (OFV) and standard goodness-of-fit and diagnostic plots. The final model was composed of one disposition compartment with first-order absorption and elimination. […] To facilitate comparison with previous studies, AUCs from 0 to 4 and 0 to 24 h were calculated from each individual’s model-predicted PK profile. Similarly, the maximum concentration (Cmax) and time of maximum concentration in a given dosing interval (tmax) were estimated both from the original data and the model prediction. The analysis was performed with NONMEM 7.4.1 (ICON plc, Dublin, Ireland), integrated with PSN 4.6.0 (psn.sourceforge.net) and using the Pirana 2.9.2 interface (pirana-software.com).

sVEGFR-2 [2] = assay: phase 1b/2 study, pharmacodynamics: plasma sVEGFR-2 by ELISA; type: in vivo, Human; details: for sVEGFR-2, median percent decrease from baseline: day 15
Protocol: For sVEGFR-2, plasma EDTA samples (220 μL) were analysed in duplicate using a commercially available enzyme-linked immunosorbent assay (Quantikine® ELISA Human VEGFR-2/KDR immunoassay, R&D Systems® Inc., Minneapolis, MN) that was validated according to the FDA guidance. A Tomtec Quadra 4 (Tomtec Inc., Hamden, CT) liquid handling robot was used to transfer all solutions to the 96-well plate to eliminate time-dependent variability associated with manual pipetting. After the addition of the Stop Solution in the final step, the absorbance of each well was measured at 450 and 540 nm on a Synergy HT plate reader (BioTek Instruments, Winooski, VT). The readings at 540 nm were subtracted from the absorbance readings at 450 nm to correct for any optical imperfections in the 96-well plate. Sample concentrations were back-calculated against calibration curves (80.0–5000 pg/mL) that were generated based on a 4-parameter fit of absorbance vs. nominal concentrations (pg/mL) using the Gen 5 software (BioTek Instruments).

[3] = in vivo
Protocol: The RP2D was defined as the MTD.
(§1) The treatment schedule was modified as there was concern on tolerability of longer dosing in patients with underlying cirrhosis. […] Study treatment was continued until disease progression or unacceptable toxicity.
(§2) Safety assessments were done at baseline, on cycle 1 days 1 and 15, and on day 1 of each cycle thereafter. Tumour assessments were performed by computed tomography or magnetic resonance imaging at baseline and every 8 weeks thereafter. Confirmatory imaging was performed within 6 weeks in patients with complete response or partial response. AEs were assessed using the National Cancer Institute Common Terminology Criteria for Adverse Events (CTCAE) v4.0. Blood sample collection for pharmacokinetic (PK) and pharmacodynamic (PD) analysis was performed on cycle 1 days 1 and 15 pre-dose as well as 2 and 4 h post dose.

sVEGFR-2 [4] = details: by day 27; 1 mg daily cohort; cited from earlier work
[5] = TIVO-1; cited from earlier work
[6] = background statement; cited from earlier work
[7] = phase 1b/2 study, safety, DLT and MTD/RP2D (CTCAE v4.0)
Protocol: The RP2D was defined as the MTD.
as §1, §2

[8] = individual patient estimate (Subject ID in c0)
[9] = individual patient, Day 1, NCA and Observation
[10] = individual patient, Day 15, NCA and Observation

COc1cc2nccc(Oc3ccc(NC(=O)Nc4cc(C)on4)c(Cl)c3)c2cc1OC [tivozanib]
tmax, Median ([1]; Day 1, 1 mg, NCA and observation): 4.067 h | AUC(0-t) ([1]; human, plasma, oral, 1 mg, Day 1, 1 mg, Model prediction, read-out: AUC0–4, Mean): 14.3 ng·h/mL | AUC(0-t) ([1]; human, plasma, oral, 1 mg, Day 1, 1 mg, Model prediction, read-out: AUC0–24, Mean): 176 ng·h/mL | Cmax ([1]; human, plasma, oral, 1 mg, Day 1, 1 mg, Model prediction, read-out: Cmax, Mean): 8.75 ng/mL | tmax ([1]; human, plasma, oral, 1 mg, Day 1, 1 mg, Model prediction, read-out: tmax, Median): 13.3 h | AUC(0-t) ([1]; human, plasma, oral, 1 mg, Day 1, 1 mg, NCA and observation, read-out: AUC0–4, Mean): 14.2 ng·h/mL | Cmax ([1]; human, plasma, oral, 1 mg, Day 1, 1 mg, NCA and observation, read-out: Cmax, Mean): 6.54 ng/mL | tmax ([1]; human, plasma, oral, 1 mg, Day 1, 1 mg, NCA and observation, read-out: tmax, Median): 4.07 h | AUC(0-t) ([1]; human, plasma, oral, 1 mg, Day 15, 1 mg, Model prediction, read-out: AUC0–4, Mean): 190 ng·h/mL | AUC(0-t) ([1]; human, plasma, oral, 1 mg, Day 15, 1 mg, Model prediction, read-out: AUC0–24, Mean): 1100 ng·h/mL | Cmax ([1]; human, plasma, oral, 1 mg, Day 15, 1 mg, Model prediction, read-out: Cmax, Mean): 50.7 ng/mL | tmax ([1]; human, plasma, oral, 1 mg, Day 15, 1 mg, Model prediction, read-out: tmax, Median): 7 h | AUC(0-t) ([1]; human, plasma, oral, 1 mg, Day 15, 1 mg, NCA and observation, read-out: AUC0–4, Mean): 184 ng·h/mL | Cmax ([1]; human, plasma, oral, 1 mg, Day 15, 1 mg, NCA and observation, read-out: Cmax, Mean): 58.7 ng/mL | tmax ([1]; human, plasma, oral, 1 mg, Day 15, 1 mg, NCA and observation, read-out: tmax, Median): 2.05 h | Vd/F ([1]; human, plasma, oral, 1 mg, typical population value, read-out: Apparent Volume of Distribution (V/F)): 105 L | Apparent systemic clearance [1, 8]: 0.99 L/h and 0.81 L/h and 0.80 L/h | Apparent volume of distribution [1, 8]: 159 L | AUC0-4 [1, 9]: 20.2 ng·h/mL and 21.6 ng·h/mL and 35.9 ng·h/mL and 27.7 ng·h/mL and 1.5 ng·h/mL and 11.0 ng·h/mL and 7.0 ng·h/mL and 16.2 ng·h/mL and 30.3 ng·h/mL and 18.0 ng·h/mL and 18.1 ng·h/mL and 10.6 ng·h/mL and 10.7 ng·h/mL and 16.6 ng·h/mL and 13.8 ng·h/mL and 6.8 ng·h/mL and 15.5 ng·h/mL and 10.3 ng·h/mL and 3.6 ng·h/mL and 0.6 ng·h/mL and 3.5 ng·h/mL and 21.5 ng·h/mL and 18.8 ng·h/mL and 8.9 ng·h/mL and 4.7 ng·h/mL and 24.5 ng·h/mL and 19.4 ng·h/mL | Cmax [1, 9]: 8.57 ng/mL and 13.6 ng/mL and 16.3 ng/mL and 9.53 ng/mL and 1.42 ng/mL and 3.62 ng/mL and 2.78 ng/mL and 6.93 ng/mL and 11.8 ng/mL and 8.23 ng/mL and 6.82 ng/mL and 5.84 ng/mL and 4.7 ng/mL and 7.56 ng/mL and 4.71 ng/mL and 3.4 ng/mL and 5.18 ng/mL and 8.48 ng/mL and 1.4 ng/mL and 0.616 ng/mL and 2 ng/mL and 7.29 ng/mL and 7.79 ng/mL and 5.82 ng/mL and 2.97 ng/mL and 8.63 ng/mL and 10.6 ng/mL | tmax [1, 9]: 4.067 h and 4.417 h and 4.05 h and 2.167 h and 4.083 h and 4.183 h and 4.017 h and 4.2 h and 4.033 h and 2.067 h and 4.133 h and 5.25 h and 7.667 h and 2.1 h and 4.35 h and 4.167 h | AUC0-4 [1, 10]: 333.0 ng·h/mL and 558.5 ng·h/mL and 360.8 ng·h/mL and 205.7 ng·h/mL and 154.1 ng·h/mL and 177.6 ng·h/mL and 112.9 ng·h/mL and 103.0 ng·h/mL and 261.2 ng·h/mL and 156.5 ng·h/mL and 150.0 ng·h/mL and 134.8 ng·h/mL and 134.3 ng·h/mL and 148.1 ng·h/mL and 239.7 ng·h/mL and 175.8 ng·h/mL and 163.5 ng·h/mL and 154.7 ng·h/mL and 185.6 ng·h/mL and 106.3 ng·h/mL | Cmax [1, 10]: 89.5 ng/mL and 201 ng/mL and 104 ng/mL and 58.8 ng/mL and 43.1 ng/mL and 47 ng/mL and 31.1 ng/mL and 32.3 ng/mL and 70.9 ng/mL and 61.2 ng/mL and 49.9 ng/mL and 33.3 ng/mL and 37.8 ng/mL and 69.4 ng/mL and 53.6 ng/mL and 43.4 ng/mL and 40.3 ng/mL and 38.7 ng/mL and 57.4 ng/mL and 47.3 ng/mL and 30.8 ng/mL | tmax [1, 10]: 2.06 h and 2.01 h and 2.1 h and 2.03 h and 2.07 h and 2.12 h and 2 h and 2.02 h and 4.12 h and 4.09 h and 3.91 h | Inter-individual variability (IIV) in CL/F ([1]; population model): 42.4 %CV | Inter-individual variability (IIV) in V/F ([1]; population model): 45.8 %CV | Inter-individual variability (IIV) in ka/F ([1]; population model): 57.5 %CV | Apparent Systemic Clearance (CL/F) ([1]; typical population value): 0.803 L/h | Apparent first-order absorption rate constant (ka/F) ([1]; typical population value): 0.239 h⁻¹ | sVEGFR-2, median pre-dose level (sVEGFR-2 [2]; cycle 1 day 1): 8.64 µg/L | sVEGFR-2, median pre-dose level (sVEGFR-2 [2]; cycle 1 day 15): 5.37 µg/L | sVEGFR-2, median percent decrease from baseline (sVEGFR-2 [2]; PFS responders): 32.4% | sVEGFR-2, median percent decrease from baseline (sVEGFR-2 [2]; PR by RECIST 1.1): 30.9% | sVEGFR-2, median percent decrease from baseline (sVEGFR-2 [2]; SD by RECIST 1.1): 40.5% | sVEGFR-2, median percent decrease from baseline (sVEGFR-2 [2]; all patients): 31.1% | sVEGFR-2, median percent decrease from baseline (sVEGFR-2 [2]; not PFS responders): 30.1% | sVEGFR-2, median percent decrease from baseline (sVEGFR-2 [2]; progressive disease (PD) by RECIST 1.1): 27.4% | Decreased appetite, grade 3 and 4 ([3]; human): 3.7% | Diarrhoea, grade 3–4 ([3]; human): 0% | Dysphonia, grade 3 and 4 ([3]; human): 0% | Fatigue, grade 3–4 ([3]; human): 26% | Hypertension, grade 3 and 4 ([3]; human): 11% | Increased bilirubin, grade 3 and 4 ([3]; human): 7.4% | Nausea, grade 3 and 4 ([3]; human): 0% | PPEDS (palmar–plantar erythrodysesthesia syndrome), Total ([3]; human): 11% | PPEDS, Total ([3]; human): 3 n | Palmar–plantar erythrodysesthesia, grade 3 and 4 ([3]; human): 3.7% | Stomatitis, grade 3 and 4 ([3]; human): 0% | Vomiting, grade 3 and 4 ([3]; human): 0% | dose reductions for toxicity [3]: six | permanently discontinued from study treatment for toxicity [3]: four | tolerability [3]: well tolerated | sVEGFR-2 decrease from baseline (sVEGFR-2 [4]): 28% | diarrhoea incidence [5]: 23% | hypertension incidence [5]: 44% | palmar–plantar erythrodysesthesia incidence [5]: 14% | liver toxicities or tissue accumulation [6]: no associated liver toxicities or tissue accumulation | deaths due to toxicity ([7]; 27 patients): No deaths due to toxicity | MTD/RP2D ([7]; per os once daily, 21 days on–7 days off, advanced HCC): 1 mg | viral loads ([7]; two HBV-positive and three HCV-positive patients): remained stable
